Test results published in the NIST ThermoML archive (doi:10.1021/je301283e).

Details: Fluid (supercritical or subcritical phases), Vibrating tube method

O=C=O [carbon dioxide]
mass density [kg/m3]
Details | 313.15 K | 333.15 K | 353.15 K | 373.15 K | 393.15 K
340 kPa | 8.2 | 7.7 | 7.4 | 6.5 | 5.7
690 kPa | 15.1 | 13.4 | 13.5 | 10.9 | 9.5
1030 kPa | 21.4 | 19.9 | 18.8 | 17.1 | 16.3
1380 kPa | 26.7 | 25.1 | 24.6 | 23.2 | 22.1
1720 kPa | 34.2 | 31.9 | 31.4 | 28.6 | 26.9
2070 kPa | 38.6 | 38.4 | 36.1 | 32.7 | 32
2410 kPa | 48.4 | 44.1 | 41.9 | 39.2 | 37
2760 kPa | 56.7 | 51.2 | 48 | 44.8 | –
3100 kPa | 64.1 | 59.1 | 54.1 | 50.3 | 47.4
3450 kPa | 72.9 | 65.1 | 61.4 | 56.1 | 52.9
3800 kPa | 80.9 | 73.1 | 67.2 | 63.2 | 58.2
4140 kPa | 87.5 | 79.7 | 73.8 | 67.9 | 63.6
4480 kPa | 99.4 | 87.9 | 80.5 | 73.1 | 69.2
4830 kPa | 109.8 | 96.5 | 88 | 80 | 74.7
5170 kPa | 122 | 105.1 | 94.9 | 86.2 | 80.4
5510 kPa | 134 | 114.2 | 102.4 | 93 | 86.2
5860 kPa | 145.4 | 123.8 | 110.2 | 99.2 | 92.4
6200 kPa | 158 | 133.4 | 118 | 106 | 98.1
6550 kPa | 175.1 | 144.2 | 126.2 | 112.9 | 104.7
6890 kPa | 194.5 | 154.3 | 134.4 | 120 | 110.5
7240 kPa | 218.9 | 166.4 | 143.4 | 127 | 113.6
7580 kPa | 239.9 | 178.8 | 152.1 | 135.4 | 123.1
7930 kPa | 272.8 | 190.1 | 161.4 | 143.1 | 129.9
8270 kPa | 315.6 | 205.2 | 171.1 | 151.1 | 136.2
8620 kPa | 383.1 | 219.5 | 180.8 | 158.1 | 142.9
8960 kPa | 478.5 | 235.1 | 191.1 | 166.1 | 149.4
9310 kPa | 554.1 | 252.4 | 201.8 | 174.4 | 156.2
9650 kPa | 599.1 | 271 | 211.9 | 182.7 | 163.2
10000 kPa | 630 | 291.4 | 223.5 | 191.9 | 170.4
10340 kPa | 649.1 | 313.6 | 235 | 199.4 | 176.4
10690 kPa | 667.8 | 337 | 247.4 | 208.4 | 183.2
11030 kPa | 682.9 | 361.9 | 259.8 | 217.3 | 191.1
11380 kPa | 696.2 | 388 | 272.4 | 223.2 | 198.2
11720 kPa | 708 | 411.1 | 283.9 | 233.1 | 203.9
12070 kPa | 718.3 | 437.9 | 298.3 | 242.8 | 210.8
12410 kPa | 727.4 | 463.8 | 312.1 | 252.7 | 218
12750 kPa | 737.3 | 489.2 | 328.4 | 262.8 | 226.3
13100 kPa | 744.1 | 510.1 | 342 | 272.5 | 234
13440 kPa | 751 | 530.7 | 356.7 | 283.1 | 242.1
13790 kPa | 757.9 | 549.9 | 372.8 | 293.1 | 250.9
14130 kPa | 765.3 | 567.7 | 388.6 | 304.7 | 258
14480 kPa | 770 | 582 | 403 | 314.9 | 266.4
14820 kPa | 775.9 | 596 | 417.8 | 325 | 275
15160 kPa | 781.5 | 609.4 | 433 | 336.1 | 283.9
15510 kPa | 786.4 | 621 | 447.5 | 347.6 | 291.1
15860 kPa | 791.7 | 627.4 | 461 | 358.1 | 300.7
16200 kPa | 796.1 | 642.1 | 475 | 368.7 | 308.4
16550 kPa | 801.2 | 651.8 | 488.1 | 379.8 | 316.8
16900 kPa | 805.8 | 661.7 | 501 | 390.2 | 325.1
17240 kPa | 809.8 | 669.7 | 513 | 400.4 | 333.1
